Data: article PMC5646234 (ChemPhotoChem, 2017)

Target: T1, Saposin B (SapB) (Homo sapiens, UniProt P07602)
T1 sequence (P07602 195-273): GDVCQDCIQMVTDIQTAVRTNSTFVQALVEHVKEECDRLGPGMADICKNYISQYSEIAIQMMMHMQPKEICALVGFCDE
Test: tyrosine fluorescence quenching titration
Format: binding

CC1=C(/C=C/C(C)=C/C=C/C(C)=C/c2cc(/C=C/C=C(C)/C=C/C3=C(C)CCCC3(C)C)cc[n+]2CCO)C(C)(C)CCC1 [A2E, 2-[(1E,3E,5E,7E)-2,5-dimethyl-8-(2,6,6-trimethyl-cyclohex-1-en-1-yl)octa-1,3,5,7-tetraen-1-yl]-1-(2-hydroxyethyl)-4-[(1E,3E,5E)-4-methyl-6-(2,6,6-trimethylcyclohex-1-en-1-yl)hexa-1,3,5-trien-1-yl]pyridinium]
Kd: 25 µM
